In US20110071177A1, “FUNGICIDAL ACTIVE SUBSTANCE COMBINATION” (Bayer CropScience AG, priority 2005, published 2011):

Test system: Sphaerotheca fuliginea
Assay: Sphaerotheca test (cucumber) / protective
Format: in vivo, Sphaerotheca fuliginea on cucumber
Details: application rate 4 ppm, evaluation 7 days after inoculation
Experimental: Solvents: 24.5 parts by weight of acetone • 24.5 parts by weight of dimethylacetamide Emulsifier: 1 part by weight of alkylaryl polyglycol ether To produce a suitable preparation of active compound, 1 part by weight of active compound or active compound combination is mixed with the stated amounts of solvents and emulsifier, and the concentrate is diluted with water to the desired concentration, or a commercial formulation of active compound or active compound combination with water is diluted with water to the desired concentration. To test for protective activity, young plants are sprayed with the active compound preparation at the stated application rate. After the spray coating has dried on, the plants are inoculated with an aqueous spore suspension of Sphaerotheca fuliginea. The plants are then placed in a greenhouse at about 23° C. and a relative atmospheric humidity of about 70%. Evaluation is carried out 7 days after inoculation. Here, 0% means an efficacy which corresponds to that of the control, whereas an efficacy of 100% means that no infestation is observed.

`CO/N=C(/C(=O)OC)c1ccccc1CO/N=C(\C)c1cccc(C(F)(F)F)c1` [2-[α-{[(α-methyl-3-trifluoromethylbenzyl)imino]oxy}-o-tolyl]glyoxylic acid methyl ester O-methyloxime] was tested, and the “% efficacy” value was 10%.
